In PubChem BioAssay (NCI):
Several values for one entry are separate records, joined by “and”; a condition that tells them apart may be missing. Equal entries are not always repeated.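 Growth conditions: 96-well plates. Treatment: test compound, 48 hours, 5 concentrations. Analysis: linear interpolation between bracketing concentrations; unreached endpoints set to highest concentration. Here, GI50 denotes the concentration required for 50% inhibition of growth. At the TGI there is no net growth.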

tested on: 786-0 renal; test: DTP human tumour cell line panel, 48 h

| Compound | TGI | GI50 |
| --- | --- | --- |
| O=C1NC(Nc2cccc(Cl)c2)=N/C1=C\c1ccc(Cl)c(Cl)c1 | 13 µM | – |
| CCCCCCCCCCC(O)C1CCC(C2CCC(C(O)CCCCC(O)CCCCCC(O)CC3=CC(C)OC3=O)O2)O1 (stereo not drawn) | > 25 µM | 3.53 µM |

tested on: HOP-92 NSCLC; test: DTP human tumour cell line panel, 48 h

| Compound | TGI | GI50 |
| --- | --- | --- |
| N#CC1=C(N2CCCC2)NC(=O)CC1=O | > 100 µM | – |
| CC(C)(C)C1=CC(=CC=C2C=CN(CCCCCCCCCCCO)C=C2)C=C(C(C)(C)C)C1=O | 6.16 µM | – |
| CSc1ccc(C2C(Cl)C(=O)N2NC(=O)c2c(Cl)c(Cl)c(Cl)c(Cl)c2-c2nc3ccccc3[nH]2)cc1 (stereo not drawn) | 25.1 µM | – |
| CC(C)CC(N)C(=O)O (stereo not drawn) | > 100 µM | – |
| O=C1NC(Nc2cccc(Cl)c2)=N/C1=C\c1ccc(Cl)c(Cl)c1 | 11.4 µM | – |
| CCCCCCCCCCC(O)C1CCC(C2CCC(C(O)CCCCC(O)CCCCCC(O)CC3=CC(C)OC3=O)O2)O1 (stereo not drawn) | > 25 µM | 3.87 µM |

tested on: PC-3 prostate; test: DTP human tumour cell line panel, 48 h

| Compound | TGI | GI50 |
| --- | --- | --- |
| N#CC1=C(N2CCCC2)NC(=O)CC1=O | > 100 µM | – |
| CC(C)(C)C1=CC(=CC=C2C=CN(CCCCCCCCCCCO)C=C2)C=C(C(C)(C)C)C1=O | 3.68 µM | – |
| O=C(c1ccc(Cl)cc1Cl)N(C(=O)N1CCCCC1)c1ccccc1 | > 100 µM | – |
| CSc1ccc(C2C(Cl)C(=O)N2NC(=O)c2c(Cl)c(Cl)c(Cl)c(Cl)c2-c2nc3ccccc3[nH]2)cc1 (stereo not drawn) | 45.8 µM | – |
| CC(C)CC(N)C(=O)O (stereo not drawn) | > 100 µM | – |
| O=C1NC(Nc2cccc(Cl)c2)=N/C1=C\c1ccc(Cl)c(Cl)c1 | 13.3 µM | – |
| CCCCCCCCCCC(O)C1CCC(C2CCC(C(O)CCCCC(O)CCCCCC(O)CC3=CC(C)OC3=O)O2)O1 (stereo not drawn) | > 25 µM | 2.79 µM |

tested on: NCI/ADR-RES ovarian; test: DTP human tumour cell line panel, 48 h

| Compound | TGI | GI50 |
| --- | --- | --- |
| N#CC1=C(N2CCCC2)NC(=O)CC1=O | > 100 µM | – |
| CC(C)(C)C1=CC(=CC=C2C=CN(CCCCCCCCCCCO)C=C2)C=C(C(C)(C)C)C1=O | 11.7 µM | – |
| O=C(c1ccc(Cl)cc1Cl)N(C(=O)N1CCCCC1)c1ccccc1 | > 100 µM | – |
| CSc1ccc(C2C(Cl)C(=O)N2NC(=O)c2c(Cl)c(Cl)c(Cl)c(Cl)c2-c2nc3ccccc3[nH]2)cc1 (stereo not drawn) | > 100 µM | – |
| CC(C)CC(N)C(=O)O (stereo not drawn) | > 100 µM | – |
| O=C1NC(Nc2cccc(Cl)c2)=N/C1=C\c1ccc(Cl)c(Cl)c1 | 16.2 µM | – |
| CCCCCCCCCCC(O)C1CCC(C2CCC(C(O)CCCCC(O)CCCCCC(O)CC3=CC(C)OC3=O)O2)O1 (stereo not drawn) | > 25 µM | > 25 µM |

tested on: OVCAR-3 ovarian; test: DTP human tumour cell line panel, 48 h

| Compound | TGI | GI50 |
| --- | --- | --- |
| N#CC1=C(N2CCCC2)NC(=O)CC1=O | > 100 µM | – |
| CC(C)(C)C1=CC(=CC=C2C=CN(CCCCCCCCCCCO)C=C2)C=C(C(C)(C)C)C1=O | 2.87 µM | – |
| O=C(c1ccc(Cl)cc1Cl)N(C(=O)N1CCCCC1)c1ccccc1 | > 100 µM | – |
| CSc1ccc(C2C(Cl)C(=O)N2NC(=O)c2c(Cl)c(Cl)c(Cl)c(Cl)c2-c2nc3ccccc3[nH]2)cc1 (stereo not drawn) | 50.7 µM | – |
| CC(C)CC(N)C(=O)O (stereo not drawn) | > 100 µM | – |
| O=C1NC(Nc2cccc(Cl)c2)=N/C1=C\c1ccc(Cl)c(Cl)c1 | 19.7 µM | – |
| CCCCCCCCCCC(O)C1CCC(C2CCC(C(O)CCCCC(O)CCCCCC(O)CC3=CC(C)OC3=O)O2)O1 (stereo not drawn) | 9.65 µM and > 25 µM | 2.16 µM |

tested on: OVCAR-4 ovarian; test: DTP human tumour cell line panel, 48 h

| Compound | TGI |
| --- | --- |
| N#CC1=C(N2CCCC2)NC(=O)CC1=O | > 100 µM |
| CC(C)(C)C1=CC(=CC=C2C=CN(CCCCCCCCCCCO)C=C2)C=C(C(C)(C)C)C1=O | 3.57 µM |
| CC(C)CC(N)C(=O)O (stereo not drawn) | > 100 µM |
| O=C1NC(Nc2cccc(Cl)c2)=N/C1=C\c1ccc(Cl)c(Cl)c1 | 5.49 µM |
| CCCCCCCCCCC(O)C1CCC(C2CCC(C(O)CCCCC(O)CCCCCC(O)CC3=CC(C)OC3=O)O2)O1 (stereo not drawn) | > 25 µM |

tested on: UACC-257 melanoma; test: DTP human tumour cell line panel, 48 h

| Compound | TGI | GI50 |
| --- | --- | --- |
| N#CC1=C(N2CCCC2)NC(=O)CC1=O | > 100 µM | – |
| CC(C)(C)C1=CC(=CC=C2C=CN(CCCCCCCCCCCO)C=C2)C=C(C(C)(C)C)C1=O | 4.4 µM | – |
| O=C(c1ccc(Cl)cc1Cl)N(C(=O)N1CCCCC1)c1ccccc1 | > 100 µM | – |
| CSc1ccc(C2C(Cl)C(=O)N2NC(=O)c2c(Cl)c(Cl)c(Cl)c(Cl)c2-c2nc3ccccc3[nH]2)cc1 (stereo not drawn) | 51.3 µM | – |
| CC(C)CC(N)C(=O)O (stereo not drawn) | > 100 µM | – |
| O=C1NC(Nc2cccc(Cl)c2)=N/C1=C\c1ccc(Cl)c(Cl)c1 | 22.2 µM | – |
| CCCCCCCCCCC(O)C1CCC(C2CCC(C(O)CCCCC(O)CCCCCC(O)CC3=CC(C)OC3=O)O2)O1 (stereo not drawn) | > 25 µM | 0.452 µM |

tested on: K-562 leukemia; test: DTP human tumour cell line panel, 48 h

| Compound | TGI |
| --- | --- |
| N#CC1=C(N2CCCC2)NC(=O)CC1=O | > 100 µM |
| CC(C)(C)C1=CC(=CC=C2C=CN(CCCCCCCCCCCO)C=C2)C=C(C(C)(C)C)C1=O | 4.87 µM |
| O=C(c1ccc(Cl)cc1Cl)N(C(=O)N1CCCCC1)c1ccccc1 | > 100 µM |
| CSc1ccc(C2C(Cl)C(=O)N2NC(=O)c2c(Cl)c(Cl)c(Cl)c(Cl)c2-c2nc3ccccc3[nH]2)cc1 (stereo not drawn) | > 100 µM |
| CC(C)CC(N)C(=O)O (stereo not drawn) | > 100 µM |
| O=C1NC(Nc2cccc(Cl)c2)=N/C1=C\c1ccc(Cl)c(Cl)c1 | 14.5 µM |
